# Patent US20200069775A1, “BRAIN OSTEOCALCIN RECEPTOR AND COGNITIVE DISORDERS” (The Trustees of Columbia University in the City of New York, priority 2017, published 2020)
# “Also recorded” adds a separate entry of the source.
# How the values were obtained:
# WT mice = test: Contextual Fear Conditioning after acute hippocampal injection; type: in vivo, mouse
# Protocol: FIG. 11. CREB activation by osteocalcin is functionally relevant. Contextual fear conditioning in 3.5 month old mice injected acutely with 10 ng recombinant uncarboxylated osteocalcin 24 hours prior to context exposure. 3 shocks of 0.55 mA were delivered to mice 1 min apart.
# To determine whether these acute injections and corresponding activation of the CREB pathway are functionally relevant, Contextual Fear Conditioning (CFC), a hippocampus dependent task that assesses long term memory, was performed. Mice were injected acutely in both hemispheres with either PBS or 10 ng recombinant uncarboxylated osteocalcin.
# [1] = system: 12 and 16 month-old WT mice; test: Peripheral osteocalcin delivery by mini-pumps in aging WT mice, DLT, EPMT, MWMT, NOR; type: in vivo, mouse; settings: 30 or 90 ng/h peripherally via mini-pumps for 60 days
# Protocol: For plasma injection experiments, 100 μl of plasma were injected 8 times during 24 days, via tail vein. Each group described is represented individually in each panel. For osteocalcin delivery in WT mice, pumps (Alzet micro-osmotic pump, Model 1002) delivering osteocalcin (30 ng/hr for 12 month-old and 90 ng/hr for 16 month-old mice), or vehicle, were surgically installed subcutaneously in the back of mice. For alendronate delivery to 3 month-old mice, intraperitoneal injections (40 μg/kg) were performed twice a week for 6 weeks. During the last 4 weeks of treatment and during behavioral testing, half of the alendronate-treated mice received 60 ng/hr osteocalcin by osmotic pump. […]
# Elevated plus maze test (EPMT): This test takes advantage of the aversion of rodents to open spaces. […] The total number of arm entries and time spent in open arms is recorded. […]
# Light to dark transition test: This test is based on the innate aversion of rodents to brightly illuminated areas and on their spontaneous exploratory behavior in response to the stressor that light represents. […] Mice were tested for 6 min and […] were recorded: (i) latency to enter the lit compartment, (ii) time spent in this compartment, an index of the anxiety-related behavior and (iii) number of transitions between compartments, an index of anxiety-related behavior as well as exploratory activity. […]
substance,measurement,setting,value
"osteocalcin: Recombinant osteocalcin bacterially produced, cleaved from the GST subunit; completely undercarboxylated at all three sites; full-length mouse osteocalcin (YLGASVPSPDPLEPTREQCELNPACDELSDQYGLKTAYKRIYGITI)",% freezing on Day 1 (CFC),WT mice; 10 ng injected 24 hours prior to context exposure,% freezing was the same for both groups
same,freezing behavior 24 hours after the initial shocks (CFC),"WT mice; 10 ng injected acutely in both hemispheres, listed as recombinant uncarboxylated osteocalcin",increased freezing behavior as compared to controls; also recorded: increased freezing along with hyperexcitability
same,memory (MWMT and NOR),[1]; 12- and 16-month-old WT mice,memory was significantly improved
same,exploratory and anxiety-like behavior (DLT or EPMT),[1]; 12 and 16 month-old WT mice,better exploratory behavior and decreased anxiety-like behavior
